According to patent US11066455B2, “Tmem100 peptides and variants thereof and their use in treating or preventing diseases or conditions” (The Johns Hopkins University, priority 2014, dated 2021):
* marks the point of attachment. Myristoyl = CCCCCCCCCCCCCC(=O)*

Legend:
[1] = tested on: CFA-induced hyperalgesia in mice; assay: CFA injection: mechanical (von Frey) and thermal (Hargreaves) hyperalgesia; type: in vivo, mouse; settings: peptide 5 μl of 2 mM; 3 hours after treatment
Description: (§1) Mice were placed in a transparent plastic box (4.5×5×10 cm) on a metal mesh and acclimatized for 30 minutes prior to testing. Each mouse was tested more than 5 times at a specific force manually, and the threshold was determined by the lowest force needed to elicit responses more than 50% of the time.
Mice were placed under a transparent plastic box (4.5×5×10 cm) on a glass platform (Plantar Test Apparatus, IITC Life Science). Radiant heat was adjusted to 18% of maximal output and shone on the center of the paws. Each mouse was tested more than 3 times, with each test performed 20 minutes apart.
Mice were injected with 6 μL of 50% emulsified Complete Freund's Adjuvant (Sigma, F5881) in normal saline.
(§2) The sequence from the last 28 amino acids of the C-terminus of the Tmem100-3Q mutant protein was synthesized and myristoylated at its N-terminus (myr-[…]-COOH) (SEQ ID NO: 8) by Twentyfirst Century Biochemicals. […] For the calcium imaging assay, the peptides were added to the calcium imaging buffer with a final concentration of 200 nM and incubated for at least […] at room temperature. For the mice behavioral assays, the peptides (5 μL, 2 mM) were injected subcutaneously in the hindpaw at least 30 minutes before testing. For the rat behavior assays, human T100-3Q (h-T100), a palmitoylated cell permeable peptide mutated based on the C terminus of human sequence in Tmem100, was applied. […]

[2] = tested on: MO-induced pain in wild-type mice; assay: Mustard oil injection in hindpaw: acute nocifensive behavior and von Frey mechanical hyperalgesia; type: in vivo, mouse
Description: as §1
Mice were injected intradermally in the hind paw with 6 μL of 0.2% mustard oil (Sigma-Aldrich 377430) with Hamilton needles (80300). The mice were placed in a plexiglass cylinder, and the total time spent licking and flinching was recorded for the first 10 minutes after injection. Thirty and sixty minutes after injection, the mice were assayed with von Frey filaments for mechanical hyperalgesia.
as §2

Substance: myr-QRVLEQVLQNWSRRANVKQAQKFQVKCT-COOH (Myristoyl-QRVLEQVLQNWSRRANVKQAQKFQVKCT-OH; SMILES CCCCCCCCCCCCCC(=O)N[C@@H](CCC(N)=O)C(=O)N[C@@H](CCCNC(=N)N)C(=O)N[C@H](C(=O)N[C@@H](CC(C)C)C(=O)N[C@@H](CCC(=O)O)C(=O)N[C@@H](CCC(N)=O)C(=O)N[C@H](C(=O)N[C@@H](CC(C)C)C(=O)N[C@@H](CCC(N)=O)C(=O)N[C@@H](CC(N)=O)C(=O)N[C@@H](Cc1c[nH]c2ccccc12)C(=O)N[C@@H](CO)C(=O)N[C@@H](CCCNC(=N)N)C(=O)N[C@@H](CCCNC(=N)N)C(=O)N[C@@H](C)C(=O)N[C@@H](CC(N)=O)C(=O)N[C@H](C(=O)N[C@@H](CCCCN)C(=O)N[C@@H](CCC(N)=O)C(=O)N[C@@H](C)C(=O)N[C@@H](CCC(N)=O)C(=O)N[C@@H](CCCCN)C(=O)N[C@@H](Cc1ccccc1)C(=O)N[C@@H](CCC(N)=O)C(=O)N[C@H](C(=O)N[C@@H](CCCCN)C(=O)N[C@@H](CS)C(=O)N[C@H](C(=O)O)[C@@H](C)O)C(C)C)C(C)C)C(C)C)C(C)C) [scrambled]
- CFA-induced mechanical hyperalgesia (mechanical threshold) [1]: 0.05 ± 0.0 g
- CFA-induced thermal hyperalgesia (latency) [1]: 3.9 ± 0.6 s
- MO-induced mechanical hyperalgesia (mechanical threshold) ([2]; peptide 5 μl of 2 mM pre-treatment): 0.1 ± 0.03 g
- MO-induced acute nocifensive behavior (time) ([2]; peptide 5 μl of 2 mM pre-treatment in hindpaw): 80 ± 9 s
